Data set [1] concerns the target Recombinant Human Ketohexokinase (KHK) (Homo sapiens (Human), UniProt P50053). As to the kind of experiment: Ketohexokinase assay (KHK assay), ADP-Glo. It counts as biochemical. The procedure: • 1. EnVision multilabel reader, Perkin Elmer; • 2. OptiPlate 384-well microplate, Perkin Elmer, Cat. No. 6007290; • 3. Recombinant Human Ketohexokinase (KHK), R&D Cat. No.: 8177-HK-020, Lot No.: DDFK0117092; • 4. Fructose (D(−)-Fructose), SCR Cat. No.: 36003034; and • 5. ADP-Glo kinase assay kit, Promega_Cat. No.: V9101.
1. preparation of Dilution Buffer containing 50 mM hydroxyethylpiperazine […] (Hepes), 140 mM KCl, 3.5 mM MgCl2, and 0.01% bovine serum albumin (BSA), pH 7.4.
2. A working solution of ketohexokinase at 2.5 times concentration was prepared with Dilution Buffer, with 50 nM ketohexokinase and 12.5 mM fructose.
3. A working solution of adenosine triphosphate (ATP) at 2.5 times concentration was prepared with Dilution Buffer, with a concentration of 250 μM.
4. Each compound was diluted starting at a concentration of 500 μM, 3-fold diluted for 9 concentration points. The final concentration of the compound in the reaction system started from 10 μM and the final concentration of dimethyl sulfoxide (DMSO) was 2%.
5. A 96-well plate was prepared as a reaction plate, and was incubated at room temperature for 5 min after adding 6 μL ketohexokinase working solution at 2.5 times concentration to each well and further adding 3 μL compound working solution to each well.
6. The first well of each row was a positive control for a compound, i.e. the same volume of the buffer was added to replace the compound and ketohexokinase. The last well was a negative control for the compound, i.e. the same volume of Dilution Buffer was added instead of the compound.
7. 6 μL ATP working solution was added to each well in a 96-well reaction plate to initiate the kinase reaction. The kinase reaction was incubated in a constant temperature heater at 28° C. for 1 h.
1. A384 plate was prepared as a detection plate, and firstly 5 μL ADP-Glo reagent was added.
2. 5 μL kinase reaction mixture from the reaction plate was added to each well and incubated in a constant temperature heater at 28° C. for 30 min.
3. 10 μL kinase detection reagent was added to each well and incubated in a constant temperature heater at 28° C. for 30 min.
4. The detection plate was placed in an EnVision multilabel reader to read the chemiluminescent signal.

In data set [2] the test system is fructose metabolism in mice. The data set is described as follows: Acute fructose feeding experiment in mice. It counts as in vivo. As to conditions: compound 30 mpk, oral fructose 1 g/kg. The procedure: The effect of test compounds on the fructose content in mice with high fructose intake was investigated.
All animals were acclimated for one week in an animal house, fed with normal chow and fasted for 16 hours before being given fructose.
1) The experiment began at −0.5 hr. A control group was given a certain volume of vehicle (a certain proportion of methylcellulose and Tween 80 in water), and an experimental group was given a certain dose of a solution of the compound (the administered volume was consistent with the vehicle).
2) 0.5 hour later and before administration of a fructose solution, a blood sample was collected at 0 hr, followed by oral administration of 1 g/kg of an aqueous fructose solution.
3) After the administration of fructose, blood samples were collected from saphenous vein of mice at 0.25, 0.5, 1, 2, 3 and 8 hr, and fructose concentration was analyzed by LC-MS/MS.

Data set [3] in a line: Liver-blood ratio, tissue distribution in rats. It is filed as in vivo, SD rats. As to conditions: SD, rat, 1 mg/kg, PO 1 mpk. How it is done:
Tissue distribution of compounds in SD rats was tested.
In the experiment, candidate compounds were formulated as clear solutions and administered to rats in a single oral dose (PO, 1 mpk). The vehicle for oral administration was a certain proportion of methylcellulose and Tween 80 in water. Whole blood was collected at a certain time and plasma was prepared, and tissues were collected at the corresponding time and prepared into tissue homogenates. Drug concentration was analyzed by LC-MS/MS, and pharmacokinetic parameters were calculated by Phoenix WinNonlin software.

Read-outs that look alike come from different tables or passages of the source.

Sequence of Recombinant Human Ketohexokinase (KHK) (P50053 whole entry): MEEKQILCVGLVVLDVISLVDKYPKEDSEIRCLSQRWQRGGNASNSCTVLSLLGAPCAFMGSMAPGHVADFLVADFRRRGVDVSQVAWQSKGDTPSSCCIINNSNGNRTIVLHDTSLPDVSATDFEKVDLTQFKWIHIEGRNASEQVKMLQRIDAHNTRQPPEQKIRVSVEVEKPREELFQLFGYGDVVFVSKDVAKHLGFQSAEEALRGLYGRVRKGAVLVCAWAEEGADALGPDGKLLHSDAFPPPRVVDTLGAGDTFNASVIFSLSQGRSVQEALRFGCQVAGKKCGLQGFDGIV

In the case of `C[C@H]1CCN1c1nc(N2CC3(C[C@H]3C(=O)O)C2)c2cc(Cl)sc2n1` [WX044], in data set [1], the IC50 stood at 81 nM.
Same read-out and setting: the figure for `C[C@H]1CCN1c1nc(N2CC3(CCC3C(=O)O)C2)c2cc(Cl)sc2n1` (stereo partly shown) [WX038] is 480 nM.
With `C[C@H]1CCN1c1nc(N2C[C@@H]3[C@@H](CC(=O)O)[C@@H]3C2)c2cccc(F)c2n1` [WX024], in data set [2], the “AUC of integral fructose concentration for dosed group” value (“AUC … for dosed group” below) was 1858 nM·h and the “AUC of integral fructose concentration of dosed group/AUC of Integral fructose concentration of control group” value is listed as 13.4. Moreover, in data set [1], the IC50 turned out to be 61 nM.
In the case of `C[C@H]1CCN1c1nc(-c2cncc(CCC(=O)O)c2)c2ccsc2n1` [WX048], in data set [1], the IC50 came to 92 nM.
On the same count and under the same terms, in the case of `C[C@H]1CCN1c1nc(-c2cccc(CCC(=O)O)c2)c2ccsc2n1` [WX016] it was 32 nM; in that of `C[C@H]1CCN1c1nc(N2C[C@@H]3[C@@H](CC(=O)O)[C@@H]3C2)c2scc(C#N)c2n1` [WX023], 210 nM.
Take `C[C@H]1CCN1c1nc(N2C[C@@H]3[C@@H](CC(=O)O)[C@@H]3C2)c2cc(Cl)sc2n1` [WX029]: in data set [2], the “AUC … for dosed group” value is 1687 nM·h and the “AUC of integral fructose concentration of dosed group/AUC of Integral fructose concentration of control group” value is reported as 15.1. Further, in data set [1], the IC50 came out at 28 nM.
Turning to `C[C@H]1CCN1c1nc(Nc2cc(F)c(C(=O)O)c(F)c2)c2ccsc2n1` [WX015], in data set [1], the IC50 turned out to be 6.7 nM.
Still for that read-out and setting: the figure for `C[C@H]1CCN1c1nc(N2C[C@@H]3[C@@H](CC(=O)O)[C@@H]3C2)c2cc(F)sc2n1` [WX028] is 50 nM; for `C[C@H]1CCN1c1nc(Nc2ccc(CC(=O)O)c(F)c2)c2ccsc2n1` [WX010] it is 15 nM.
As to `C[C@H]1CCN1c1nc(N2CC3(C[C@H]3C(=O)O)C2)c2cccc(F)c2n1` [WX040], the IC50 in data set [1] came to 320 nM.
The same measure, in the same setting: in the case of `C[C@H]1CCN1c1nc(-c2ccnc(CCC(=O)O)c2)c2ccsc2n1` [WX033] it was 71 nM.
For `C[C@H]1CCN1c1nc(Nc2ccc(C(=O)O)cc2)c2ccsc2n1` [WX012], the concentration at 1.5 h in data set [3] (liver, 1.5 h, read-out: Liver tissue concentration) is 2100 nM; in data set [3] (plasma, 1.5 h, read-out: Plasma concentration), 810 nM. The concentration at 2 h in data set [3] (liver, 2.0 h, read-out: Liver tissue concentration) is 618 nM; in data set [3] (plasma, 2.0 h, read-out: Plasma concentration), 273 nM. Further, the concentration at 6 h was found to be 634 nM in data set [3] (liver, 6.0 h, read-out: Liver tissue concentration) and 145 nM in data set [3] (plasma, 6.0 h, read-out: Plasma concentration). Also, the Kp at 1.5 h in data set [3] (liver/plasma, 1.5 h, read-out: Liver-blood ratio) was determined as 2.62. The Kp at 2 h in data set [3] (liver/plasma, 2.0 h, read-out: Liver-blood ratio) turned out to be 2.32. Besides, in data set [3] (liver/plasma, 6.0 h, read-out: Liver-blood ratio), the Kp at 6 h was 4.39. Further, in data set [1], the 50% inhibitory concentration (IC50) was found to be 9.4 nM.
As to `C[C@H]1CCN1c1nc(N2CC3(C[C@@H]3CC(=O)O)C2)c2cc(Cl)sc2n1` [WX056], the IC50 in data set [1] stood at 360 nM.
Turning to `C[C@H]1CCN1c1nc(N2CC3(C[C@@H]3C(=O)O)C2)c2cc(Cl)sc2n1` [WX045], the IC50 in data set [1] was determined as 30 nM.
On to `C[C@H]1CCN1c1nc(N2CC3(C[C@@H]3C(=O)O)C2)c2ccsc2n1` [WX020], for which, in data set [2], the “AUC … for dosed group” value was 1180 nM·h and the “AUC of integral fructose concentration of dosed group/AUC of Integral fructose concentration of control group” value is 8.5. Further, the IC50 in data set [1] came to 130 nM.
Take `C[C@H]1CCN1c1nc(N2CCC3(CC3C(=O)O)C2)c2ccsc2n1` (stereo partly shown) [WX027]: the IC50 in data set [1] was 250 nM.
For `C[C@H]1CCN1c1nc(N2CC3(CC3C(=O)O)C2)c2c(F)csc2n1` (stereo partly shown) [WX037], in data set [1], the IC50 was 150 nM.
Regarding `C[C@H]1CCN1c1nc(Nc2ccc(C(=O)O)c(C#N)c2)c2ccsc2n1` [WX011], in data set [1], the IC50 was determined as 17 nM.
In the case of `C[C@H]1CCN1c1nc(N2CC3(C[C@@H]3C(=O)O)C2)c2cccc(F)c2n1` [WX041], in data set [2], the “AUC … for dosed group” value came to 1704 nM·h and the “AUC of integral fructose concentration of dosed group/AUC of Integral fructose concentration of control group” value is reported as 6.5. For the same compound, the IC50 in data set [1] was 52 nM.
Regarding `C[C@H]1CCN1c1nc(N2CC3(C[C@@H]3CC(=O)O)C2)c2ccsc2n1` [WX054], in data set [1], the half-maximal inhibitory concentration (IC50) turned out to be 1000 nM.
Still for that read-out and setting: the figure for `C[C@H]1CCN1c1nc(-c2cccc(CCC(=O)O)n2)c2ccsc2n1` [WX047] is 630 nM; for `C[C@H]1CCN1c1nc(NC2CC(C(=O)O)C2)c2ccsc2n1` (stereo partly shown) [WX032] it is 150 nM.
Regarding `C[C@H]1CCN1c1nc2c(c(N3C[C@@H]4[C@@H](CC(=O)O)[C@@H]4C3)n1)CCS2` [WX026], in data set [2], the “AUC … for dosed group” value stood at 993 nM·h and the “AUC of integral fructose concentration of dosed group/AUC of Integral fructose concentration of control group” value is on record as 8.9. Further, in data set [1], the IC50 was found to be 91 nM.
On to `C[C@H]1CCN1c1nc(Nc2cc(F)c(CC(=O)O)c(F)c2)c2ccsc2n1` [WX014], for which, in data set [1], the IC50 worked out at 14 nM.
The same measure, in the same setting: the figure for `C[C@H]1CCN1c1nc(N2CC3(C2)CC3(C)C(=O)O)c2cc(Cl)sc2n1` (stereo partly shown) [WX049] is 210 nM; for `C[C@H]1CCN1c1nc(-c2cccc(/C=C/C(=O)O)c2)c2ccsc2n1` [WX017] it is 20 nM; for `C[C@H]1CCN1c1nc(N2C[C@@H]3[C@@H](CC(=O)O)[C@@H]3C2)c2scnc2n1` [WX002] it is 190 nM.
On to `C[C@H]1CCN1c1nc(N2CC(CC(=O)O)C2)c2ccsc2n1` [WX018], for which the IC50 in data set [1] amounted to 390 nM.
On the same count and under the same terms, the figure for `C[C@H]1CCN1c1nc(N2C[C@@H]3[C@@H](CC(=O)O)[C@@H]3C2)c2sccc2n1` [WX046] is 700 nM; for `C[C@H]1CCN1c1nc(N2CC3(CC3C(=O)O)C2)c2ccsc2n1` (stereo partly shown) [WX009] it is 100 nM; for `C[C@H]1CCN1c1nc(-c2cncc(OCC(=O)O)c2)c2ccsc2n1` [WX039] it is 36 nM.
As to `C[C@H]1CCN1c1nc(N2CC3(CC3C(=O)O)C2)c2cc(Cl)sc2n1` (stereo partly shown) [WX036], in data set [1], the IC50 came out at 69 nM.
In the case of `C[C@H]1CCN1c1nc(N2CC3(C[C@H]3CC(=O)O)C2)c2ccsc2n1` [WX055], the IC50 in data set [1] came out at 650 nM.
For `C[C@H]1CCN1c1nc(N2CC3(CC3C(=O)O)C2)c2cccc(F)c2n1` (stereo partly shown) [WX034], in data set [1], the IC50 came out at 110 nM.
Still for that read-out and setting: in the case of `C[C@H]1CCN1c1nc(N2CC3(C[C@H]3CC(=O)O)C2)c2cc(Cl)sc2n1` [WX057] it was 200 nM; in that of `C[C@H]1CCN1c1nc(Nc2ccc(CC(=O)O)cc2)c2ncsc2n1` [WX003], 110 nM; in that of `C[C@H]1CCN1c1nc2c(c(N3C[C@@H]4[C@@H](CC(=O)O)[C@@H]4C3)n1)CSC2` [WX021], 160 nM.
Same read-out and setting: in the case of `C[C@H]1CCN1c1nc(N2C[C@@H]3[C@@H](CC(=O)O)[C@@H]3C2)nc2ncsc12` [WX005] it was 650 nM.
As for `Cc1csc2nc(N3CC[C@@H]3C)nc(N3C[C@@H]4C(CC(=O)O)[C@@H]4C3)c12` (stereo partly shown) [WX008], in data set [1], the IC50 is 210 nM.
Same read-out and setting: the figure for `Cc1csc2nc(N3CC[C@@H]3C)nc(Nc3ccc(CC(=O)O)cc3)c12` [WX007] is 16 nM; for `C[C@H]1CCN1c1nc(N2CC3(CC3C(=O)O)C2)c2cccc(Cl)c2n1` (stereo partly shown) [WX050] it is 260 nM.
For `C[C@H]1CCN1c1nc(-c2ccc(CC(=O)O)c(F)c2)c2ccsc2n1` [WX022], the IC50 in data set [1] was 200 nM.
The same measure, in the same setting: in the case of `C[C@H]1CCN1c1nc(N2CC[C@H](CC(=O)O)C2)c2ccsc2n1` [WX025] it was 240 nM; in that of `C[C@H]1CCN1c1nc(NC2CC3(C2)CC3C(=O)O)c2cc(Cl)sc2n1` (stereo partly shown) [WX051], 69 nM.
